Where “and” joins values, the source holds several entries; their conditions need not be identical. Identical values can stand only once.
System: 926638-142-R-J1-PDC complex spheroid viability
Assay: Anticancer human tumor 926638-142-R-J1-PDC patient-derived endometrial carcinoma cell line growth inhibition [POLQ]
Conditions: for viability, T/C: stronger effect = lower value
Description: Multicellular complex tumor spheroid response to Polymerase (POL) inhibitors (novobiocin, ART-558, RP6685) in combination with a variety of drugs and investigational agents in selected tumor cell lines
The POL inhibitors (novobiocin, ART-558, and RP6685) were evaluated both individually and in combination with standard of care and investigational anticancer small molecules within a complex spheroid model of solid tumors. . Complex spheroids include a stromal component modeled by human endothelial cells (HUVEC) and fibroblasts modeled by human mesenchymal stem cells (MSCs). The concentration ranges selected for each drug and investigational agent were based upon clinically achievable concentrations if the clinical Cmax of the agent was known.
Compounds. The drugs and investigational agents: novobiocin (NSC847541), ART-558 (NSC835418), RP-6685 (NSC848927), peposertib (NSC802822), ceralasertib (NSC780249), elimusertib (NSC800525), camonsertib (NSC841442), AZD-1390 (NSC803789), olaparib (NSC753686), talazoparib (NSC767125), rucaparib (NSC756644), sotorasib (NSC818433), MRTX-1133 (NSC836407), SN-38 (NSC673596), topotecan (NSC609699), epotoside (NSC141540), doxorubicin (NSC123127), gemcitabine (NSC613327), 5-fluorouracil (NSC19893), paclitaxel (NSC125973), vemurafenib (NSC761431), MSA-2 (NSC828583), SN-011 (NSC837082), adavosertib (NSC754352), prexasertib (NSC758257), carboplatin (NSC241240) and oxaliplatin (NSC266046), were obtained from the National Cancer Institute (NCI) Developmental Therapeutics Program Chemical Repository (21). The FDA-approved anticancer drug set is available from the Developmental Therapeutics Program at https://dtp.cancer.gov/organization/dscb/obtaining/. […] The stock solutions were prepared in dimethyl sulfoxide (DMSO, Sigma-Aldrich, St. Louis, MO, cat. D2650), except for the platinum compounds which were prepared in saline (Quality Biological, Gaithersburg, MD, cat. 114-055-101), at 800-fold the tested concentration and stored at -70 degrees C prior to their use. All drugs and investigational agents were tested over a range starting from a high concentration at or near the clinical Cmax and decreasing in half-log increments. If the clinical Cmax for an agent had not been determined, the highest concentration tested was 10 microM, except for SN-38, which was tested at a high concentration of 1 microM.
Cell Culture. All cells were maintained in an incubator at 37 degrees C and 5% CO2 with 95% humidity. The PDC lines were cultured according to standard operating procedures established by the NCI PDMR (https://pdmr.cancer.gov). Table 3 of the manuscript, lists the cell lines along with the number of the three cell types plated to form the mct-spheroids and media for tumor cell growth. After thawing, all PDC lines, except 997537-175-T-J1-PDC and 415267-285-R-J2-PDC, were cultured in Matrigel-coated flasks prepared with a working solution of 1X Ham's F-12 nutrient mix, without supplementation (Thermo Fisher Scientific, cat. 11765054), 100 U/mL penicillin-streptomycin (Thermo Fisher Scientific, cat. 15140122), and 2.5% Matrigel (Corning Inc., Corning, NY, cat. 354248) for the first three passages. The two PDC lines 997537-175-T-J1-PDC and 415267-285-R-J2-PDC were cultured on uncoated flasks. The 857933-349-R-J2-PDC line was cultured in 6C/Colon 1B media containing advanced DMEM/F-12 (Thermo Fisher Scientific, cat. 12634028), 10 mM HEPES (Thermo Fisher Scientific, cat. 15630080), 1X GlutaMAX supplement (Thermo Fisher Scientific, cat. 35050061), 0.1 mg/mL primocin (InvivoGen, San Diego, CA, cat. ant-pm-2), 10% defined fetal bovine serum, heat inactivated (HyClone Laboratories Inc., Logan, UT, cat. SH30070.03HI), 50% L-WRN conditioned media (ATCC, cat. CRL-3276), 1.25 mM N-Acetyl-L-cysteine (Sigma-Aldrich, cat. A9165), 10 mM nicotinamide (Sigma-Aldrich, cat. N0636), 1X B-27 supplement (Thermo Fisher Scientific, cat. 17504044), 1X N-2 supplement (Thermo Fisher Scientific, cat. […]
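Note: spheroids exposed to drugs for one week before readout.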
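Throughout, for viability, T/C: percent viability relative to DMSO vehicle control wells set as 100%.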

C=CC(=O)N1CCN(c2nc(=O)n(-c3c(C)ccnc3C(C)C)c3nc(-c4c(O)cccc4F)c(F)cc23)C(C)C1 (stereo not given) + Nc1ccc(C#CCN(C(=O)Cc2ncc(C(F)(F)F)cc2C(F)(F)F)c2ccc(F)cc2)nn1
IC50 (curve of first compound, second compound 0.0316 µM): > 10 µM | IC50 (curve of first compound, second compound 0.1 µM): > 10 µM | IC50 (curve of first compound, second compound 0.316 µM): > 10 µM | IC50 (curve of first compound, second compound 1 µM): > 10 µM | IC50 (curve of first compound, second compound 3.16 µM): > 10 µM | IC50 (curve of first compound, second compound 10 µM): > 10 µM | viability, T/C (second compound 0.0316 µM, first compound 0.0316 µM): 93.4% | viability, T/C (second compound 0.0316 µM, first compound 0.1 µM): 106% | viability, T/C (second compound 0.0316 µM, first compound 0.316 µM): 98.1% | viability, T/C (second compound 0.0316 µM, first compound 1 µM): 92.5% | viability, T/C (second compound 0.0316 µM, first compound 3.16 µM): 88.4% | viability, T/C (second compound 0.0316 µM, first compound 10 µM): 52.5% | viability, T/C (second compound 0.1 µM, first compound 0.0316 µM): 107% | viability, T/C (second compound 0.1 µM, first compound 0.1 µM): 103% | viability, T/C (second compound 0.1 µM, first compound 0.316 µM): 93.2% | viability, T/C (second compound 0.1 µM, first compound 1 µM): 86.6% | viability, T/C (second compound 0.1 µM, first compound 3.16 µM): 87.8% | viability, T/C (second compound 0.1 µM, first compound 10 µM): 55.8% | viability, T/C (second compound 0.316 µM, first compound 0.0316 µM): 108% | viability, T/C (second compound 0.316 µM, first compound 0.1 µM): 91% | viability, T/C (second compound 0.316 µM, first compound 0.316 µM): 79.8% | viability, T/C (second compound 0.316 µM, first compound 1 µM): 90.1% | viability, T/C (second compound 0.316 µM, first compound 3.16 µM): 86.4% | viability, T/C (second compound 0.316 µM, first compound 10 µM): 53% | viability, T/C (second compound 1 µM, first compound 0.0316 µM): 106% | viability, T/C (second compound 1 µM, first compound 0.1 µM): 86.8% | viability, T/C (second compound 1 µM, first compound 0.316 µM): 94.6% | viability, T/C (second compound 1 µM, first compound 1 µM): 82.3% | viability, T/C (second compound 1 µM, first compound 3.16 µM): 85.1% | viability, T/C (second compound 1 µM, first compound 10 µM): 53.5% | viability, T/C (second compound 3.16 µM, first compound 0.0316 µM): 93% | viability, T/C (second compound 3.16 µM, first compound 0.1 µM): 99.7% | viability, T/C (second compound 3.16 µM, first compound 0.316 µM): 89.5% | viability, T/C (second compound 3.16 µM, first compound 1 µM): 93.6% | viability, T/C (second compound 3.16 µM, first compound 3.16 µM): 73.8% | viability, T/C (second compound 3.16 µM, first compound 10 µM): 53.8% | viability, T/C (second compound 10 µM, first compound 0.0316 µM): 94.4% | viability, T/C (second compound 10 µM, first compound 0.1 µM): 98.5% | viability, T/C (second compound 10 µM, first compound 0.316 µM): 78.2% | viability, T/C (second compound 10 µM, first compound 1 µM): 78.7% | viability, T/C (second compound 10 µM, first compound 3.16 µM): 87% | viability, T/C (second compound 10 µM, first compound 10 µM): 60.4%

CCCS(=O)(=O)Nc1ccc(F)c(C(=O)c2c[nH]c3ncc(-c4ccc(Cl)cc4)cc23)c1F
viability, T/C (compound 0.0316 µM): 104% and 88.4% and 90.9% | viability, T/C (compound 0.1 µM): 107% and 99.6% and 92.5% | viability, T/C (compound 0.316 µM): 96.6% and 97% and 86% | viability, T/C (compound 1 µM): 98.3% and 106% and 94.4% | viability, T/C (compound 3.16 µM): 88.2% and 76.9% and 82% | viability, T/C (compound 10 µM): 50.4% and 47.4% and 51.5% | IC50 (curve of compound): > 10 µM and 9.03 µM

Nc1ccc(C#CCN(C(=O)Cc2ncc(C(F)(F)F)cc2C(F)(F)F)c2ccc(F)cc2)nn1
viability, T/C (compound 0.0316 µM): 101% [middle of 13 runs] | viability, T/C (compound 0.1 µM): 101% [middle of 13 runs] | viability, T/C (compound 1 µM): 97.2% [middle of 13 runs] | viability, T/C (compound 10 µM): 99.8% [middle of 13 runs] | IC50 (compound alone, run of 01/19/2024): > 10 µM

C#Cc1c(F)ccc2cc(O)cc(-c3ncc4c(N5CC6CCC(C5)N6)nc(OCC56CCCN5CC(F)C6)nc4c3F)c12 (stereo not given)
viability, T/C (compound 0.0316 µM): 85.1% and 98.5% and 86.6% | viability, T/C (compound 0.1 µM): 88.2% and 90.2% and 93.3% | viability, T/C (compound 0.316 µM): 79.4% and 92.4% and 73.8% | viability, T/C (compound 1 µM): 78.3% and 69.2% and 77.4% | viability, T/C (compound 3.16 µM): 65.5% and 80.2% and 60.2% | viability, T/C (compound 10 µM): 52.5% (2×) and 67.8% | IC50 (curve of compound): > 10 µM

CCc1c2c(nc3ccc(O)cc13)-c1cc3c(c(=O)n1C2)COC(=O)[C@]3(O)CC
viability, T/C (compound 0.00316 µM): 65.4% and 62.4% and 71.3% | viability, T/C (compound 0.01 µM): 46.9% and 39.7% and 51.1% | viability, T/C (compound 0.0316 µM): 39% and 39.6% and 38.6% | viability, T/C (compound 0.1 µM): 24.9% and 26.6% and 21% | viability, T/C (compound 0.316 µM): 10.9% and 16.3% and 8.99% | viability, T/C (compound 1 µM): 4.17% and 12.3% and 5.58% | IC50 (curve of compound): 0.01 µM and 0.00731 µM and 0.0125 µM

CC[C@@]1(O)C(=O)OCc2c1cc1n(c2=O)Cc2cc3c(CN(C)C)c(O)ccc3nc2-1
viability, T/C (compound 0.000316 µM): 92.4% and 102% and 103% | viability, T/C (compound 0.001 µM): 87.4% and 90.6% and 84.2% | viability, T/C (compound 0.00316 µM): 86.8% and 84.1% and 78.3% | viability, T/C (compound 0.01 µM): 72.1% and 81.6% and 70.2% | viability, T/C (compound 0.0316 µM): 68.5% and 73.5% and 62% | viability, T/C (compound 0.1 µM): 43.1% and 49% and 41.8% | IC50 (curve of compound): 0.0723 µM and > 0.1 µM and 0.0631 µM
